From ChEMBL document CHEMBL4665912, “Novel Compounds as STING Modulators for Treating Hepatitis B Virus Infections” (ACS Med Chem Lett, 2020) come the findings set out here.

The target in experiment [1] is T1, Stimulator of interferon genes protein (Homo sapiens, UniProt Q86WV6). Nature of the experiment: Agonist activity at STING in human PBMC cells assessed as increase in […] by electrochemiluminescence assay. Format: cell-based.
Experiment [2] addresses T1, Stimulator of interferon genes protein. Nature of the experiment: Competitive binding affinity to human recombinant C-terminal Avi-tag STING using Alexa 488 probe incubated for 15 mins by FRET based assay.

As a reminder, the EC50 is the concentration that produces a half-maximal response. As a reminder, the IC50 is the point on the concentration scale where inhibition reaches its midpoint.

T1 sequence (Q86WV6 whole entry): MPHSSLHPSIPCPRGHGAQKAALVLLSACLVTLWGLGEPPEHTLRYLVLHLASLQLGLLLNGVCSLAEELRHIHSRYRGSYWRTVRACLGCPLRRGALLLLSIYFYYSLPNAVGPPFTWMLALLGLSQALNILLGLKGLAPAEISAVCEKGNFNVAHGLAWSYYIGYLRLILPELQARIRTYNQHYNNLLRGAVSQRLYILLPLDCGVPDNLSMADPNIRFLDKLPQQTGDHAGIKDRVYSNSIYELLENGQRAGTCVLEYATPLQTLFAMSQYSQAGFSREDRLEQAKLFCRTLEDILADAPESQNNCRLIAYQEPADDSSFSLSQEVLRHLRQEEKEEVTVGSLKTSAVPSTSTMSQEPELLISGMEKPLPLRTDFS

`CCn1nc(C)cc1C(=O)/N=c1\n(C)c2ccccc2n1C/C=C/Cn1/c(=N/C(=O)c2cc(C)nn2CC)n(C)c2cccc(CN3CCCCC3)c21`: the half-maximal effective concentration (EC50) in experiment [1] was < 1 nM. For the same molecule, the half-maximal inhibitory concentration (IC50) in experiment [2] is < 1 nM.
For `CCn1nc(C)cc1C(=O)/N=c1\n(C)c2ccccc2n1C/C=C/Cn1/c(=N/C(=O)c2cc(C)nn2CC)n(C)c2c(CO)cccc21`, the EC50 in experiment [1] was < 1 nM. Further, in experiment [2], the 50% inhibitory concentration (IC50) was < 1 nM.
As to `CCn1nc(C)cc1C(=O)/N=c1\n(C)c2cccc(OC)c2n1C/C=C/Cn1/c(=N/C(=O)c2cc(C)nn2CC)n(C)c2cccc(OCCCO)c21`, the EC50 in experiment [1] is < 1 nM. In addition, the IC50 in experiment [2] was < 1 nM.
For the molecule `CCn1nc(C)cc1C(=O)/N=c1\n(C)c2ccccc2n1C/C=C/Cn1/c(=N/C(=O)c2cc(C)nn2CC)n(C)c2cccc(C(O)CO)c21` (configuration not stated), the 50% effective concentration (EC50) in experiment [1] was determined as 1 nM. In addition, the IC50 in experiment [2] is < 1 nM.
For `CCn1nc(C)cc1C(=O)/N=c1\n(C)c2ccccc2n1C/C=C/Cn1/c(=N/C(=O)c2cc(C)nn2CC)n(C)c2cccc(CN3CCOCC3)c21`, the 50% effective concentration (EC50) in experiment [1] was < 1 nM. Besides, the IC50 in experiment [2] was < 1 nM.
As for `CCn1nc(C)cc1C(=O)/N=c1\n(C)c2ccccc2n1C/C=C/Cn1/c(=N/C(=O)c2cc(C)nn2CC)n(C)c2cccc(CN3CCCCCC3)c21`, in experiment [1], the EC50 was < 1 nM. In experiment [2], the IC50 is < 1 nM.
